Legend:
[1] = biological target: T1, binding of β2GPI to LPS (Homo sapiens, UniProt P02749); conditions: cited from earlier work
T1 sequence (P02749 20-345): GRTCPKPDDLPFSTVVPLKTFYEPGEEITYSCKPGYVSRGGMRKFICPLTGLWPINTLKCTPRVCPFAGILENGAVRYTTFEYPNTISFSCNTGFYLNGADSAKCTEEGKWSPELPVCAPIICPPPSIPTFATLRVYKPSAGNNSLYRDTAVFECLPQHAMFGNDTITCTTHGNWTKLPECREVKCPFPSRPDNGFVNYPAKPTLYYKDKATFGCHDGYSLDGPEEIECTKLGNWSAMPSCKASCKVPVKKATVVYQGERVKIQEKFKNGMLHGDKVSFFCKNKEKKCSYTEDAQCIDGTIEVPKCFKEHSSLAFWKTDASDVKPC

[2] = tested on: ISAV virus (Infectious salmon anemia virus); experiment: Capture of ISAV virus on magnetic microbeads coated with pepβ2GPI, RT-PCR quantification; assay type: binding; conditions: for % compared to β2GPI: ISAV copies captured relative to β2GPI beads; for ISAV copies: virus captured on coated beads from culture supernatant
Excerpt: The virus used is the ISAV virus (Infectious salmon anemia virus), responsible for anemia in salmon, originating from a culture supernatant.
The microbeads, intended to fix the virus, which are used are magnetic microbeads sold by the company MERCK under the name “Estapor® super-paramagnetic microspheres” which have a diameter between […].
(§1) The pepβ2GPI were grafted onto the microbeads according to the supplier's recommendations. In summary, the microbeads are suspended in phosphate buffer at a pH of 6.0. The beads are then activated, for 15 minutes, in the presence of 1-ethyl-3-(3-Dimethylaminopropyl) carbodiimide and N-hydroxysuccinimide. After washing with HCl, 2 mM, the beads are suspended in a phosphate buffer at a pH of 7.5, containing the pepβ2GPI. The concentration of pepβ2GPI in this coupling buffer is 20 mg/L; the microbeads are incubated in the buffer with gentle and constant shaking at a temperature of 25° C. for 3 hours. The microbeads are then centrifuged at 1,500 rpm and the supernatant is removed; the centrifugation pellet is suspended in the same buffer as that used for the coupling of pepβ2GPI, which forms the suspension of microbeads coated with pepβ2GPI which we want to test.
(§2) One hundred microliters of viral culture supernatant to be studied are placed in an Eppendorf tube with 900 microliters of Tris buffer at a pH of 7.5 and 10 microliters of microbeads. The tubes are shaken horizontally to mix the microbeads well, and each tube is incubated at 37° C. or at room temperature (RT=22° C.) for 30 minutes. In each tube, the microbeads are then separated from the liquid phase by means of a magnet, placed externally against the wall of the tube, and the viral RNA is extracted. The beads are brought into contact with a viral lysis buffer, included in an RNA extraction kit: QIAamp RNA viral kit, sold by QIAGEN and the viral RNA is isolated according to the seller's recommendations.
The RNA is then transcribed into complementary DNA, in the presence of reverse transcriptase, according to the following protocol:
Finally, the complementary DNA (cDNA) is amplified by chain reaction using a polymerase and quantified according to the following protocol: […]

[3] = tested on: E. coli B6054; experiment: Capture on magnetic microbeads coated with pepβ2GPI: H61 E. coli B6054; assay type: binding
Procedure: (§3) To test the interaction of microbeads coated with β2GPI and the peptides derived from them, with bacteria present in the blood, 1 ml of blood culture is taken from each sample and placed in a 15 ml tube. 20 μl of microbeads are added and each tube is incubated at 37° C. with horizontal shaking. The tubes are then placed in a magnetic field which retains the microbeads on the wall and the supernatant is removed. The microbeads are then washed twice with sterile PBS, of the same composition as previously indicated; the microbeads are then resuspended in 150 μl of BTS culture medium. Two methods for detecting bacteria captured by microbeads were used: culture on TS agar and PCR For the detection of the bacterial capture by culture, 50 μl of the suspension of microbeads thus obtained are taken and they are spread out in a Petri dish containing TS agar. Petri dishes are incubated in an oven at 37° C. for 24 hours. The bacteria that have grown on the agar were then counted.
(§4) The tested bacteria are: C3 E. coli ATCC 11105, C5 S. aureus ATCC 6538, H61 E. coli B6054, C1: E. coli ATCC 8739, H46: C. albicans 1 and H: 60 SCN
(§5) The same protocol and primers as those described in example 9 were carried out.

[4] = tested on: E. coli ATCC 11105; experiment: Capture on magnetic microbeads coated with pepβ2GPI: C3 E. coli ATCC 11105; assay type: binding
Procedure: as §3, §4, §5

[5] = tested on: BVDV virus (Bovine viral Diarrhea Virus); experiment: Capture of BVDV virus on magnetic microbeads coated with pepβ2GPI; assay type: binding
Procedure: as §1, §2
(§6) The viruses tested are the HSV virus (Herpes Simplex virus) and the BVDV virus (Bovine viral Diarrhea Virus).
(§7) The same protocol as that described in example 1 was carried out.

[6] = tested on: S. aureus ATCC 6538; experiment: Capture on magnetic microbeads coated with pepβ2GPI: C5 S. aureus ATCC 6538; assay type: binding
Procedure: as §3, §4, §5

[7] = tested on: S. pyogenes; conditions: cited from earlier work
[8] = tested on: S. aureus; conditions: cited from earlier work
[9] = tested on: E. coli; conditions: cited from earlier work
[10] = tested on: IPN virus (Infectious pancreatic necrosis virus); experiment: Capture of IPN virus on magnetic microbeads coated with pepβ2GPI, RT-PCR quantification; assay type: binding; conditions: for % compared to β2GPI: IPN copies captured relative to β2GPI beads; for IPN Copies: virus captured on coated beads from culture supernatant
Procedure: as §1, §2
The virus used is the IPN virus (Infectious pancreatic necrosis virus), responsible for necrosis of the pancreas in salmon, originating from a culture supernatant. The same protocol as described in example 1 was carried out.

[11] = tested on: E. coli B6054; experiment: Capture of E. coli B6054 on magnetic microbeads, culture on TS agar and counting; assay type: binding, Escherichia coli; conditions: E. coli B6054 colonies from captured beads
[12] = tested on: S. aureus, SA 378804; experiment: Capture of S. aureus SA 378804 on magnetic microbeads, culture and counting; assay type: binding, Staphylococcus aureus; conditions: S. aureus SA 378804 colonies from captured beads
Procedure: (§8) One ml of the culture of bacteria to be studied is placed in a hemolysis tube. 100 μl of buffer are added, the trade name of which is TTGB, then 20 μl of microbeads. The tube is stirred horizontally, to mix the microbeads well, and incubated at 37° C. or at room temperature (TA=22° C.) for half an hour. At the end of the incubation, the microbeads are separated from the liquid phase by means of a magnet, placed externally against the wall of the tube. The microbeads are then washed twice with LB medium and then resuspended in 1 ml of BTS culture medium (Tripticase-Soy broth) having the following formulation: […]
(§9) This culture medium is brought to a boil and then autoclaved, to make it sterile, before use. 20 μl of the microbead suspension are taken and spread in a Petri dish containing TS agar (Trypticase-Soya agar) having the following formulation: […]
(§10) The Petri dishes are incubated at +37° C. for 24 hours. The bacteria that have grown on the agar are then counted.
The used bacterium is a strain of Staphylococcus aureus (S. aureus), SA 378804, isolated from the wound of the foot of a diabetic person, Sotto et al., Diabetes Care (2008) 31 (12), p. 2318-24. The same experiment as that described in the previous example was carried out.

[13] = tested on: HSV virus (Herpes Simplex virus); experiment: Capture of HSV virus on magnetic microbeads coated with pepβ2GPI; assay type: binding
Procedure: as §1, §2, §6, §7

[14] = tested on: HCV virus (hepatitis C virus); experiment: Capture of HCV virus from patient plasma on magnetic microbeads coated with pepβ2GPI, RT-PCR quantification; assay type: binding; conditions: for % compared to β2GPI: HCV copies captured relative to β2GPI beads; for HCV/run copies: per run, virus captured on coated beads from plasma of patients
Procedure: as §1, §2
The virus used is the HCV virus (hepatitis C virus), present in the plasma of patients. The same protocol as described in example 1 was carried out.

[15] = tested on: E. coli ATCC 8739; experiment: Capture of E. coli ATCC 8739 on magnetic microbeads, culture and counting; assay type: binding, Escherichia coli; conditions: E. coli ATCC 8739 colonies from captured beads
Procedure: as §8, §9, §10
The used bacteria were obtained from a collection strain of Escherichia coli (E. coli), ATCC 8739. The same experiment as that described in the previous example was carried out.

[16] = tested on: E. coli ATCC 8739; experiment: Capture on magnetic microbeads coated with pepβ2GPI: C1 E. coli ATCC 8739; assay type: binding
Procedure: as §3, §4, §5

[17] = tested on: SCN; experiment: Capture on magnetic microbeads coated with pepβ2GPI: H: 60 SCN; assay type: binding
Procedure: as §3, §4, §5

[18] = tested on: C. albicans 1; experiment: Capture on magnetic microbeads coated with pepβ2GPI: H46 C. albicans 1; assay type: binding
Procedure: as §3, §4, §5

LAFWKTDA
inhibiting the binding of β2GPI to LPS [1]: capable of inhibiting the binding of β2GPI to LPS

CKNKEKKC [Peptide P3]
% compared to β2GPI [2]: (117%)
ISAV copies [2]: 65 550 copies
Capture of H61 E. coli B6054 [3]: 88%
Capture of C3 E. coli ATCC 11105 [4]: 42%
Capture of BVDV virus [5]: 15%
Capture of C5 S. aureus ATCC 6538 [6]: 65%

GDKVSFFCKNKEKKCS [GDK15]
bactericidal effect [7]: have a bactericidal effect
bactericidal effect [8]: This effect is less
bactericidal effect [9]: have a bactericidal effect

CKNKEKKCGGSSLAFWK [Peptide P4]
% compared to β2GPI [2]: (110%)
ISAV copies [2]: 61 150 copies
% compared to β2GPI [10]: (100%)
IPN Copies [10]: 12 copies
Capture of H61 E. coli B6054 [3]: 85%
% compared to β2GPI [11]: 44%
% compared to β2GPI [12]: 79%
Capture of C3 E. coli ATCC 11105 [4]: 26%
Capture of HSV virus [13]: 357%
Capture of BVDV virus [5]: 73%
Capture of C5 S. aureus ATCC 6538 [6]: 73%
% compared to β2GPI [14]: (73%)
HCV/run copies [14]: 83 copies
% compared to β2GPI [15]: 18%

CKNKEKKC [Peptide P2]
% compared to β2GPI [2]: (112%)
ISAV copies [2]: 62 700 copies
% compared to β2GPI [10]: (50%)
IPN Copies [10]: 6 copies
Capture of H61 E. coli B6054 [3]: 104%
% compared to β2GPI [11]: 31%
% compared to β2GPI [12]: 104%
Capture of C3 E. coli ATCC 11105 [4]: 30%
Capture of HSV virus [13]: 97%
Capture of BVDV virus [5]: 181%
Capture of C5 S. aureus ATCC 6538 [6]: 80%
% compared to β2GPI [14]: (72%)
HCV/run copies [14]: 81 copies
% compared to β2GPI [15]: 15%

CKNKEKKCS [CNK8]
bactericidal effect [7]: have a bactericidal effect
bactericidal effect [8]: This effect is less
bactericidal effect [9]: have a bactericidal effect

SSLAFWK [Peptide P1]
% compared to β2GPI [2]: (130%)
ISAV copies [2]: 72 300 copies
% compared to β2GPI [10]: (117%)
IPN Copies [10]: 14 copies
Capture of H61 E. coli B6054 [3]: 71%
% compared to β2GPI [11]: 92%
% compared to β2GPI [12]: 115%
Capture of C3 E. coli ATCC 11105 [4]: 30%
Capture of BVDV virus [5]: 7%
Capture of C5 S. aureus ATCC 6538 [6]: 56%
% compared to β2GPI [14]: (163%)
HCV/run copies [14]: 184 copies
% compared to β2GPI [15]: 68%

H-(SSLAFWK)2-K—NH2 [Peptide P10]
% compared to β2GPI [2]: (105%)
ISAV copies [2]: 58 400 copies
% compared to β2GPI [10]: (67%)
IPN Copies [10]: 8 copies
Capture of C1: E. coli ATCC 8739 [16]: 6.17%
Capture of H61 E. coli B6054 [3]: 79%
% compared to β2GPI [11]: 34%
Capture of C3 E. coli ATCC 11105 [4]: 45%
Capture of H: 60 SCN [17]: 49.0%
Capture of H46: C. albicans 1 [18]: 97.9%
Capture of HSV virus [13]: 119%
Capture of BVDV virus [5]: 208%
Capture of C5 S. aureus ATCC 6538 [6]: 66%
% compared to β2GPI [14]: (87%)
HCV/run copies [14]: 98 copies
% compared to β2GPI [15]: 12%
